Source: PubChem BioAssay AID256 (DTP/NCI, 2004)
Inconclusive results and toxic doses are left out. Rule for the calls: active = survival T/C of 150% or more; inactive = T/C below 125% in these data.

Test system: CD2F1 mice, L1210 leukemia ip, survival T/C
Test: NCI In Vivo Anticancer Drug Screen. Data for tumor model L1210 Leukemia (intraperitoneal) in CD2F1 (CDF1) mice
Settings: higher = longer survival
How it was run: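 Each value reflects a quotient of treated over vehicle control outcomes in mice with a transplanted tumor.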

[1] = endpoint: mean survival time, dose: 6.25 mg/kg/injection, schedule: Q04DX003 (ip), vehicle: distilled water + Tween-80
[2] = endpoint: mean survival time, dose: 12.5 mg/kg/injection, schedule: Q04DX003 (ip), vehicle: distilled water + Tween-80
[3] = endpoint: mean survival time, dose: 25.0 mg/kg/injection, schedule: Q04DX003 (ip), vehicle: distilled water + Tween-80
[4] = endpoint: mean survival time, dose: 50.0 mg/kg/injection, schedule: Q04DX003 (ip), vehicle: distilled water + Tween-80
[5] = endpoint: mean survival time, dose: 100.0 mg/kg/injection, schedule: Q04DX003 (ip), vehicle: saline with Tween-80
[6] = endpoint: mean survival time, dose: 200.0 mg/kg/injection, schedule: Q04DX003 (ip), vehicle: saline with Tween-80
[7] = endpoint: mean survival time, dose: 100.0 mg/kg/injection, schedule: Q01DX009 (ip), vehicle: saline with Tween-80
[8] = endpoint: mean survival time, dose: 200.0 mg/kg/injection, schedule: Q01DX009 (ip), vehicle: saline with Tween-80
[9] = endpoint: mean survival time, dose: 400.0 mg/kg/injection, schedule: Q01DX009 (ip), vehicle: saline with Tween-80
[10] = endpoint: mean survival time, dose: 400.0 mg/kg/injection, schedule: Q04DX003 (ip), vehicle: saline with Tween-80
[11] = endpoint: mean survival time, dose: 25.0 mg/kg/injection, schedule: Q01DX009 (ip), vehicle: saline with Tween-80
[12] = endpoint: mean survival time, dose: 6.25 mg/kg/injection, schedule: Q01DX009 (ip), vehicle: saline with Tween-80
[13] = endpoint: mean survival time, dose: 12.5 mg/kg/injection, schedule: Q01DX009 (ip), vehicle: saline with Tween-80

Measured: T/C

CC(C)(C)C1CCS(=O)(=O)CC1.[Cl][Hg][Cl]
inactive: endpoint: mean survival time, dose: 0.25 mg/kg/injection, schedule: Q04DX003 (ip), vehicle: saline 104 % of control | endpoint: mean survival time, dose: 0.5 mg/kg/injection, schedule: Q04DX003 (ip), vehicle: saline 94 % of control | endpoint: mean survival time, dose: 1.0 mg/kg/injection, schedule: Q04DX003 (ip), vehicle: saline 100 % of control

CCOC1=NC(C)(C)CC(C)O1 (centres undefined)
inactive: endpoint: mean survival time, dose: 25.0 mg/kg/injection, schedule: Q01DX009 (ip), vehicle: saline 109 % of control | endpoint: mean survival time, dose: 50.0 mg/kg/injection, schedule: Q01DX009 (ip), vehicle: saline 109 % of control | endpoint: mean survival time, dose: 100.0 mg/kg/injection, schedule: Q01DX009 (ip), vehicle: saline 103 % of control | endpoint: mean survival time, dose: 100.0 mg/kg/injection, schedule: Q04DX003 (ip), vehicle: saline 97 % of control

[Cl][Pt+2][Cl].[NH-]c1cccc(I)c1.[NH-]c1cccc(I)c1
inactive: endpoint: mean survival time, dose: 3.12 mg/kg/injection, schedule: Q04DX003 (ip), vehicle: distilled water + Tween-80 103 % of control | [1] 110 % of control | [2] 108 % of control | [3] 106 % of control | [4] 112 % of control | endpoint: mean survival time, dose: 100.0 mg/kg/injection, schedule: Q04DX003 (ip), vehicle: distilled water + Tween-80 112 % of control

S=C1NC(/C=C/c2ccccc2)Nc2ccccc21 (centres undefined)
inactive: [5] 91 % of control | [6] 87 % of control

SC1(SC2(S)CCCCC2)CCCCC1
inactive: [7] 102 % of control | [8] 112 % of control | [9] 103 % of control

COc1cccc(NC(=S)/C(=C(\[O-])c2ccc([N+](=O)[O-])cc2)[n+]2ccc(C(C)C)cc2)c1
inactive: [7] 95 % of control | [8] 93 % of control

O=C(SCCNCCNC1CC2CCC1C2)c1ccccc1 (centres undefined)
inactive: endpoint: mean survival time, dose: 9.4 mg/kg/injection, schedule: Q01DX009 (ip), vehicle: saline with Tween-80 98 % of control | endpoint: mean survival time, dose: 9.4 mg/kg/injection, schedule: Q04DX003 (ip), vehicle: saline with Tween-80 95 % of control | endpoint: mean survival time, dose: 18.8 mg/kg/injection, schedule: Q01DX001 (ip), vehicle: saline 97 % of control | endpoint: mean survival time, dose: 18.8 mg/kg/injection, schedule: Q01DX009 (ip), vehicle: saline with Tween-80 97 % of control | endpoint: mean survival time, dose: 18.8 mg/kg/injection, schedule: Q04DX003 (ip), vehicle: saline with Tween-80 92 % of control | endpoint: mean survival time, dose: 37.5 mg/kg/injection, schedule: Q01DX001 (ip), vehicle: saline 100 % of control | endpoint: mean survival time, dose: 37.5 mg/kg/injection, schedule: Q01DX009 (ip), vehicle: saline with Tween-80 97 % of control | endpoint: mean survival time, dose: 37.5 mg/kg/injection, schedule: Q04DX003 (ip), vehicle: saline with Tween-80 95 % of control

CC(c1ccccc1)C(OC(=O)c1ccc([N+](=O)[O-])cc1)c1ccccc1 (centres undefined)
inactive: [7] 97 % of control | [5] 98 % of control | [8] 94 % of control | [6] 94 % of control | [9] 91 % of control | [10] 98 % of control

CC(=O)Nc1ccc(SC(=O)N(C)C)cc1
inactive: [5] 92 % of control

Cc1ccc([N+](=O)[O-])cc1C#N
inactive: [5] 105 % of control | [6] 105 % of control | [10] 113 % of control

O=c1[nH]cc(Br)cc1[N+](=O)[O-]
inactive: endpoint: mean survival time, dose: 100.0 mg/kg/injection, schedule: Q04DX002 (ip), vehicle: saline with Tween-80 101 % of control | endpoint: mean survival time, dose: 200.0 mg/kg/injection, schedule: Q04DX002 (ip), vehicle: saline with Tween-80 112 % of control | endpoint: mean survival time, dose: 400.0 mg/kg/injection, schedule: Q04DX002 (ip), vehicle: saline with Tween-80 108 % of control

C1CC[N-]CC1.[Cl][Pt+2][Cl].[NH2-]
inactive: [1] 100 % of control | [2] 96 % of control | [3] 94 % of control | [4] 91 % of control

CC(C)NC(=O)NC(C)C
inactive: endpoint: mean survival time, dose: 100.0 mg/kg/injection, schedule: Q01DX001 (ip), vehicle: saline 107 % of control | endpoint: mean survival time, dose: 200.0 mg/kg/injection, schedule: Q01DX001 (ip), vehicle: saline 102 % of control | endpoint: mean survival time, dose: 400.0 mg/kg/injection, schedule: Q01DX001 (ip), vehicle: saline 100 % of control

Oc1ccccc1CNc1ccccc1
inactive: [5] 98 % of control | [6] 93 % of control | [10] 104 % of control

CC1(C)C2CC=C(CCN=[N+]=[N-])C1C2 (centres undefined)
inactive: endpoint: mean survival time, dose: 50.0 mg/kg/injection, schedule: Q01DX009 (ip), vehicle: saline sonified 97 % of control | endpoint: mean survival time, dose: 100.0 mg/kg/injection, schedule: Q01DX009 (ip), vehicle: saline sonified 97 % of control | [5] 105 % of control | endpoint: mean survival time, dose: 200.0 mg/kg/injection, schedule: Q01DX009 (ip), vehicle: saline sonified 95 % of control | [6] 97 % of control

Cc1[nH]c(C(=O)NN)c(C)c1C(=O)NN
inactive: [11] 111 % of control | endpoint: mean survival time, dose: 50.0 mg/kg/injection, schedule: Q01DX009 (ip), vehicle: saline with Tween-80 100 % of control | [7] 103 % of control | [5] 98 % of control

CCCCCCCCCCCCNC(=O)C[n+]1cccc(C(=O)Nc2ccccc2)c1
inactive: [12] 97 % of control | endpoint: mean survival time, dose: 6.25 mg/kg/injection, schedule: Q04DX003 (ip), vehicle: saline with Tween-80 106 % of control | [13] 97 % of control | endpoint: mean survival time, dose: 12.5 mg/kg/injection, schedule: Q04DX003 (ip), vehicle: saline with Tween-80 100 % of control | endpoint: mean survival time, dose: 25.0 mg/kg/injection, schedule: Q04DX003 (ip), vehicle: saline with Tween-80 106 % of control

CS(=O)(=O)C(Br)(Br)S(C)(=O)=O
inactive: endpoint: mean survival time, dose: 4.7 mg/kg/injection, schedule: Q01DX001 (ip), vehicle: saline with Tween-80 103 % of control | endpoint: mean survival time, dose: 9.4 mg/kg/injection, schedule: Q01DX001 (ip), vehicle: saline with Tween-80 100 % of control

BrCc1ccccc1C[P+](c1ccccc1)(c1ccccc1)c1ccccc1
inactive: endpoint: mean survival time, dose: 3.13 mg/kg/injection, schedule: Q01DX009 (ip), vehicle: saline sonified 107 % of control | endpoint: mean survival time, dose: 6.25 mg/kg/injection, schedule: Q01DX009 (ip), vehicle: saline sonified 96 % of control | endpoint: mean survival time, dose: 12.5 mg/kg/injection, schedule: Q04DX003 (ip), vehicle: saline sonified 107 % of control | endpoint: mean survival time, dose: 25.0 mg/kg/injection, schedule: Q04DX003 (ip), vehicle: saline sonified 100 % of control

C1CCC2CCCN2CC1 (centres undefined)
inactive: [13] 95 % of control | endpoint: mean survival time, dose: 12.5 mg/kg/injection, schedule: Q04DX003 (ip), vehicle: acetone 94 % of control | [11] 94 % of control | endpoint: mean survival time, dose: 25.0 mg/kg/injection, schedule: Q04DX003 (ip), vehicle: acetone 92 % of control | endpoint: mean survival time, dose: 50.0 mg/kg/injection, schedule: Q04DX003 (ip), vehicle: acetone 100 % of control

O=C(CCl)Nc1cc(C(F)(F)F)ccc1Cl
inactive: [12] 101 % of control | [13] 101 % of control | [11] 104 % of control | [5] 104 % of control | [6] 97 % of control | [10] 97 % of control

CC1c2ccc3ccccc3c2C(=O)c2cccc(Cl)c21 (centres undefined)
inactive: endpoint: median survival time, dose: 50.0 mg/kg/injection, schedule: Q04DX002 (ip), vehicle: saline with Tween-80 100 % of control | endpoint: median survival time, dose: 100.0 mg/kg/injection, schedule: Q04DX002 (ip), vehicle: saline with Tween-80 100 % of control | endpoint: median survival time, dose: 200.0 mg/kg/injection, schedule: Q04DX002 (ip), vehicle: saline with Tween-80 111 % of control | endpoint: median survival time, dose: 400.0 mg/kg/injection, schedule: Q04DX002 (ip), vehicle: saline with Tween-80 88 % of control

C/C(Cc1ccccc1)=N\O
inactive: [5] 103 % of control | [6] 100 % of control | [10] 114 % of control
